The values that follow come from PMC3790268 (Bioorganic & medicinal chemistry letters, 2013).

The target of this assay is rat nNOS (Rattus norvegicus, UniProt P29476). The following applies: compared with (R,R)-16a, (S,S)-16b and (R)-6b.

Consider `Cc1cc(N)nc(COC[C@@H](N)[C@H](C)OCc2cc(C)cc(N)n2)c1` [(S,R)-16c], for which the “decreased affinity for nNOS” value came out at 10 fold.
